Data reported in patent publication US20120202287A1, “Stem Cell Culture Methods” (priority 2009, published 2012).
Entries after “also recorded” stand apart in the source; their conditions may differ.

Key:
Assay type in all cases: cell-based, human
hESC line SA461 = assay: hESC line transferred directly from MEF feeders to feeder-free culture without FGF, supplemented with EHNA; settings: passage 7, 10 uM EHNA, no exogenous FGF
Method: A culture of the hESC line SA461 was transferred from a supportive MEF feeder layer directly, using manual dissection, to standard feeder free conditions in the absence of exogenous FGF but supplemented with 10 uM EHNA. A control was also grown with neither FGF nor EHNA present. Cells were subsequently passaged by the standard trypsin feeder free technique. It was determined by passage 7 that the EHNA containing cultures were almost 100% positive for POU5F1 whereas positive staining in the cultures absent for FGF and EHNA was minimal (FIG. 8).

SA121 hESCs = assay: General (monolayer) differentiation on matrigel in defined media, qRT-PCR of stem cell and differentiation markers after 14 days; parameters: key to Full EHNA effect: those which maintained at least 50% of the level of NANOG-expression in comparison to EHNA and those that inhibited the expression of PAX6 to 50% or less than the value untreated controls were considered to have an EHNA-like effect; settings: 14 days, qRT-PCR
Method: In order to ascertain the efficacy of the compounds of the present invention, each compound was tested to determine whether it can maintain the stem cell marker NANOG and/or block the differentiation marker PAX6 in the face of differentiating conditions in a manner similar to EHNA. Cells enzymatically passaged onto matrigel-coated dishes and grown for 2 weeks in defined media with or without (control) compound addition were analysed by qRT-PCR to determine the level of NANOG and PAX6 expression.
For general differentiation experiments cells were passaged with trypsin onto matrigel coated twelve-well dishes in the fully supportive media (see above). The media was then changed to defined media 24 h later and any experimental component was first added at this point. The media and experimental supplement were changed daily.
Cells were routinely harvested for qRT-PCR analysis 14 days after the first addition of the experimental compound.
Total RNA was extracted using QIAGEN RNeasy kits (Qiagen Inc, Valencia, Calif., http://www.qiagen.com) and DNaseI treatment was performed using Turbo DNA-Free (Ambion). The absence of genomic DNA was confirmed by quantitative PCR (qPCR) (see below) using glyceraldehyde-3-phosphate dehydrogenase (GAPDH) Taqman primers and probe (MWG). cDNA was synthesized with 2 μg total RNA in 20 μl using Superscript II according to manufacturers' instructions ((Carlsbad, Calif., http://www.Invitrogen.com)). For qPCR, cDNAs were diluted 1 in 60 and 5 μl used per sample in a 15 μl total reaction volume. Platinum pPCR supermix UDG with Rox (Carlsbad, Calif., http://www.Invitrogen.com) was used according to the manufacturer's instructions using an Applied Biosystems 7300 real time PCR system (Applied Biosystems, Warrington, UK, http://europe.appliedbiosystems.com). Each reaction contained 0.6 μM of each primer and Taqman probe (MWG). Biological and technical replicates were each performed in triplicate for each sample, standardised to the GAPDH housekeeping gene and relative expression values were calculated using the 7300 system SDS software (Applied Biosystems, Warrington, UK, http://europe.appliedbiosystems.com).
Cells were enzymatically passaged onto matrigel-coated dishes and grown for 2 weeks in defined media. After 14 days, qRT-PCR was utilised to analyse the expression of a variety of markers of pluripotency and differentiation. In the graphs in FIG. 9 the value 1 was set to the expression level of the gene in undifferentiated SA121 hESCs.
Cells were enzymatically passaged onto matrigel-coated dishes and grown for 2 weeks in defined media (1× confluent T25 tissue culture flask was passaged to 2×12 well dishes) with or without (control) compound addition. All compounds were added at 10 uM and each was performed in triplicate. Media and compounds were changed every 48 hours. After 14 days RNA was isolated and qRT-PCR was utilised to analyse the expression of NANOG and PAX6. The results are illustrated in FIGS. 13 to 17.
In the graphs in FIGS. 13, 14 15, 16 and 17 the value 1 was set relative to the expression level of the gene in the control (no compound) samples. […] This experiment allowed the effect of the EHNA-related compounds to be measured directly in comparison to EHNA. […] Those which had on effect, to these levels, on either PAX6 or NANOG were considered to have a partial-EHNA effect.

hESCs = assay: Directed monolayer neuronal differentiation with and without EHNA
Method: […] RNA samples were taken at various time intervals and a variety of marker gene expression was measured using qRT-PCR.
In FIGS. 11a-d, the value of 1 was set to the level of expression in undifferentiated hES cells. In FIG. 12a, the value of 1 was set to the expression level in the untreated control samples.

hESCs (SA121) = assay: Feeder-free culture of hESCs without exogenous FGF, supplemented with EHNA
Method: Cells were grown on fibronectin coated dishes. A fibronectin (Calbiochem) solution (0.1 mg/ml) (diluted in PBS) is used to coat the tissue culture dishes for 15 mins at 37 C.
The fully supportive media used to culture the stem cells was a 1:1 mixture of defined media (see below) and conditioned vitrohES. vitrohES media was conditioned for 24 hours on a layer of mitotically inactivated mouse embryonic fibroblasts plated at 4×10^5 cells/ml of conditioned media. Passaging was performed first by removing the media from the cells and washing with PBS. Trypsin (sourced from Invitrogen) was added to the cells and incubated for 1-2 mins at room temperature. Fresh media was added to neutralize the cells and then gently scraped off using a cell scraper and passaged 1 in 4 to fibronectin coated dishes.
After washing with PBS, cells were fixed in 4% paraformaldehyde (Sigma) for 10 mins at room temperature and washed again. Cells were then permeabilised in ethanol for 2 minutes. Blocking was performed in 10% Goat serum (sigma)/PBS (Invitrogen) for one hour at room temperature. The following primary antibodies (dilutions in brackets) were then incubated for 1 hour at room temperature diluted in blocking solution: mouse anti-POU5F1 (Santa cruz) (1:250), rabbit anti-PAX6 (Chemicon) (1:1000), mouse anti B-tubulin III (Sigma) (1:1000), mouse anti-Alpha-feta-protein (AFP) (Sigma) (1:400), mouse anti-muscle-specific actin (SMA) (Dako) (1:50), SSEA1 (Hybdridoma bank University of IOWA) (1:5), SSEA3 (Hybdridoma bank University of IOWA) (1:5), SSEA4 (Hybdridoma bank. University of IOWA) (1:5), Tra1-60 (Santa cruz) (1:200) and Tra1-80 (Santa Cruz) (1:200). […] All immunofluorescence was visualised and captures using Zeiss Axiovision image analysis system (http://www.ziess.com).
(§1) hESCs (SA121) were placed into standard feeder free conditions without exogenous FGF (including conditioned media made without addition of exogenous FGF) but supplemented with 10 μM EHNA. Cells were initially seeded from a trypsin passage of a standard, FGF containing, feeder free culture (passage 33 post feeder free; p100 total).
Controls were also set up without FGF or EHNA. Three lines were set up to grow independently for each condition and these were routinely passaged using trypsin as normal. Passaging was usually a 1 in 4 split approximately every 4 days.
as §1, with “A further culture of SA121 was transferred to” for “hESCs (SA121) were placed into”, “7” for “33”, “p 48” for “p100”

[1] = 10 passages, immunofluorescence

In the case of `CCCCCC[C@@H]([C@@H](C)O)n1cnc2c(N)ncnc21.Cl` [EHNA, erythro-9-(2-Hydroxy-3-nonyl)adenine, HCl], the “cells positive for POU5F1” value (hESC line SA461) is reported as roughly 100%, the “Full EHNA effect” value (SA121 hESCs; 10 uM, NANOG at least 50% of EHNA level and PAX6 50% or less of untreated control) is reported as “X” and the “SOX2 transcription in differentiating conditions” value (SA121 hESCs; FIG. 9a) is reported as “maintained transcription at the same level as seen in undifferentiated hESCs and the untreated samples”. For the same compound, the “stem cell marker expression (NANOG, ZFP42, POU5F1) in differentiating conditions” value (SA121 hESCs; FIG. 9a) was “distinctly inhibited the down-regulation of the stem cell markers NANOG, ZFP42 and POU5F1”, the “induction of other differentiation markers (AFP, CD34, Brachyury, PECAM1, CDX2 and FOXA2)” value (SA121 hESCs; data not shown) was “No induction of these markers” and the “NANOG expression in differentiating conditions” value (SA121 hESCs; relative to untreated control) was “clearly maintains a higher level of NANOG than the untreated control”. For the same compound, the “PAX6 expression in differentiating conditions” value (SA121 hESCs; HCl) was “inhibited the rise of PAX6 expression levels; also recorded: inhibits the onset of the differentiation marker PAX6”, the “cells staining positive for POU5F1 versus untreated differentiation” value (hESCs; 4 weeks (28 days) of neuronal differentiation) was “At least 10 times” and the “PAX6 levels relative to the control differentiation” value (hESCs; 4 weeks of differentiation (passage at 2 weeks)) was greater than 50%. For the same compound, the “levels of the stem cells markers NANOG and ZFP42” value (hESCs; 4 weeks of differentiation, versus control) was “considerably higher levels”, the “effect on PAX6 / neuronal marker expression” value (hESCs; early neuronal differentiation, qRT-PCR, HCl) was “delays the onset and reduces the amount of neuronal marker expression; also recorded: delay or reduce the level of expression” and the “expression levels of the stem cell genes POU5F1, NANOG and ZFP42” value (hESCs; first 2 weeks of neuronal differentiation, qRT-PCR) was “maintained largely at undifferentiated levels”. The “maintenance of hESCs in an undifferentiated state in the absence of FGF” value (hESCs (SA121); 10 μM EHNA, feeder free, no exogenous FGF) was “can be maintained in an undifferentiated state in the absence of FGF if EHNA is present”, the “differentiation marker SSEA1” value (hESCs (SA121); [1]) was “negative” and the “stem-cell markers SSEA3, SSEA4, TRA-160, TRA-180 and OCT4” value (hESCs (SA121); [1]) was “positive”. The “expression of the stem cell markers NANOG and POU5F1 in the absence of FGF” value (hESCs (SA121); FIG. 3) was “maintained”, the “ability to differentiate to all three germ layers” value (hESCs (SA121); after at least 22 passages without FGF with EHNA) was “can differentiate to all three germ layers” and the karyotype (hESCs (SA121); passage 21, at least one replicate line) was “karyotypically normal”. The POU5F1 staining (hESCs (SA121); passage 21, immunofluorescence) was “all positive for POU5F1” and the “hESC gene expression (TLDA)” value (hESCs (SA121); passage 30, compared with hESCs grown with FGF without EHNA) was “appropriate hESC gene expression”.
